Results published in paper PMC6178282, “Comparative cell biological study of in vitro antitumor and antimetastatic activity on melanoma cells of GnRH-III-containing conjugates modified with short-chain fatty acids” (Beilstein Journal of Organic Chemistry, 2018).
Where two headings read alike, the source gives them in different places.

Test system: A2058 melanoma cells
Assay: xCELLigence impedance-based long-term antiproliferative/cytotoxic measurement
Format: cell-based, human
Details: for IC50: Homo sapiens
Text: One of the major requirements for a drug-delivery conjugate is the ability to provide the antitumor activity of the attached drug inside the cells. The antiproliferative/cytotoxic effect of conjugates was investigated by an impedimetric technique, xCELLigence System (ACEA Biosciences, San Diego, CA, USA). The real-time measurement of the impedance change, which is in direct correlation with the number of adhered cells on an electrode surface, makes this impedimetric assay sensitive enough for cytotoxicity experiments. In the event of a cytotoxic compound, the cells detach from the electrode surface and a drop in the impedance – given as Cell index values – could be observed.
IC50 values – a concentration that decreases the cell viability by 50% – were calculated from Cell index values obtained at 48 h and 72 h for each concentration and used for comparing the effects of conjugates. It is clearly seen that the presence of acylated Lys could increase almost 10-fold the antitumor activity (p < 0.001) of parent conjugate (GnRH-III(Dau=Aoa)). […]
Cell proliferation and cytotoxicity measurement
The antiproliferative/cytotoxic effect of conjugates compared with Dau was assessed using the xCELLigence SP System (ACEA Biosciences, San Diego, CA, USA). This system uses a so-called E-plate having gold microelectrodes covered the surface of each well and quantifies different cellular activities (e.g. cell proliferation, cell adhesion) by real-time measuring the impedance. The detected impedance change is in direct correlation with the cell number or the electrode surface covered by the attached cells. A relative and dimensionless parameter, Cell index (CI), was calculated from the detected impedance change by the following formula: […]
where Zi is the impedance at a given time point, Z0 is the impedance at t = 0 h, and Fi is a constant depending on the frequency (F10kHz = 15). […]
For the treatment of the cells, the conjugates and the free drug were applied in 10−12–10−4 M final concentrations and the cells were monitored for further 72 h. […]
In order to evaluate whether the conjugates could elicit their antiproliferative/cytotoxic character in short-term, A2058 cells (10^4 cells/well) were seeded in 96-well plate 24 h before the treatment. […] After treating the cells with compounds in 10−6–10−5 M concentrations, where their most significant cytotoxic effect was detected in case of the long-term treatments, the cells were washed twice with serum-free medium and cultured for further 48 h in serum-containing medium. The viability of cells was determined by alamarBlue-assay (Thermo Fisher Scientific, Waltham, MA, USA) according to the manufacturer’s instruction. After 4 h incubation with the alamarBlue® reagent, the fluorescence intensity of the reaction product

[1] = A2058 cells, Cell index time course, Figure S5

For COc1cccc2c1C(=O)c1c(O)c3c(c(O)c1C2=O)C[C@@](O)(C(C)=O)C[C@@H]3O[C@H]1C[C@H](N)[C@H](O)[C@H](C)O1 [daunorubicin], the “concentrations at which the tumor-growth inhibitory effect was elicited (time-course study)” value [1] was 10^–6 to 10^−4 M, the “time after treatment at which the effect on Cell index set in” value [1] was 0 to 5 h and the IC50 (A2058, 48 h, read-out: 48 h IC50) was 0.19 ± 0.017 µM. The IC50 (A2058, 72 h, read-out: 72 h IC50) was 0.053 ± 0.009 µM.
